Measured values published in patent US4187292A, “Antibiotics produced from the microorganism nocardice” (Takeda Chemical Industries, Ltd., priority 1977, dated 1980).
In brackets after ≈: the same amount, converted by molar mass.

Key:
[1] = tested on: Alcaligenes faecalis; test: Antimicrobial activity, serial dilution method; format: cell-based; details: IFO 13111; Trypticase-soy agar
Procedure: (§1) The antimicrobial activities of Antibiotics C-14919 E-1 and E-2 were assayed by the serial dilution method using Trypticase-soy agar (BBL), glucose nutrient agar and glycerol nutrient agar as test media (Table 5). In addition, the activities against Tetrahymena pyriformis W were determined by the serial dilution method using the assay medium [Proteose-peptone 20 g, yeast extract 1 g, glucose 2 g, distilled water 1000 ml, 1 M-phosphate buffer (pH 7.0) 10 ml].

[2] = tested on: Bacillus brevis; test: Antimicrobial activity, serial dilution method; format: cell-based; details: IFO 3331; Trypticase-soy agar
Procedure: as §1

[3] = tested on: Bacillus cereus; test: Antimicrobial activity, serial dilution method; format: cell-based; details: IFO 3514; Trypticase-soy agar
Procedure: as §1

[4] = tested on: Bacillus megaterium; test: Antimicrobial activity, serial dilution method; format: cell-based; details: IFO 12108; Trypticase-soy agar
Procedure: as §1

[5] = tested on: Bacillus pumilus; test: Antimicrobial activity, serial dilution method; format: cell-based; details: IFO 3813; Trypticase-soy agar
Procedure: as §1

[6] = tested on: Bacillus subtilis 6633; test: Antimicrobial activity, serial dilution method; format: cell-based; details: IFO 3134; Trypticase-soy agar
Procedure: as §1

[7] = tested on: Bacillus subtilis PCI219; test: Antimicrobial activity, serial dilution method; format: cell-based; details: IFO 3513; Trypticase-soy agar
Procedure: as §1

[8] = tested on: Escherichia coli K-12; test: Antimicrobial activity, serial dilution method; format: cell-based; details: IFO 3301; Trypticase-soy agar
Procedure: as §1

[9] = tested on: Micrococcus flavus; test: Antimicrobial activity, serial dilution method; format: cell-based; details: IFO 3242; Trypticase-soy agar
Procedure: as §1

[10] = tested on: Proteus vulgaris; test: Antimicrobial activity, serial dilution method; format: cell-based; details: IFO 3045; Trypticase-soy agar
Procedure: as §1

[11] = tested on: Pseudomonas aeruginosa; test: Antimicrobial activity, serial dilution method; format: cell-based; details: IFO 3080; Trypticase-soy agar
Procedure: as §1

[12] = tested on: Salmonella typhimurium; test: Antimicrobial activity, serial dilution method; format: cell-based; details: IFO 12529; Trypticase-soy agar
Procedure: as §1

[13] = tested on: Sarcina lutea; test: Antimicrobial activity, serial dilution method; format: cell-based; details: IFO 3232; Trypticase-soy agar
Procedure: as §1

[14] = tested on: Serratia marcescens; test: Antimicrobial activity, serial dilution method; format: cell-based; details: IFO 3046; Trypticase-soy agar
Procedure: as §1

[15] = tested on: Staphylococcus aureus 209P; test: Antimicrobial activity, serial dilution method; format: cell-based; details: IFO 12732; Trypticase-soy agar
Procedure: as §1

[16] = tested on: Candida albicans; test: Antimicrobial activity, serial dilution method (Trypticase-soy agar); format: cell-based; details: IFO 0583
Procedure: as §1

[17] = tested on: Aspergillus niger; test: Antimicrobial activity, serial dilution method; format: cell-based; details: IFO 4066; Glucose nutrient agar
Procedure: as §1
(§2) **Glucose nutrient agar

[18] = tested on: Candida krusei; test: Antimicrobial activity, serial dilution method; format: cell-based; details: IFO 1395; Glucose nutrient agar
Procedure: as §1, §2

[19] = tested on: Candida pseudotropicalis; test: Antimicrobial activity, serial dilution method; format: cell-based; details: IFO 0617; Glucose nutrient agar
Procedure: as §1, §2

[20] = tested on: Candida tropicalis; test: Antimicrobial activity, serial dilution method; format: cell-based; details: IFO 1400; Glucose nutrient agar
Procedure: as §1, §2

[21] = tested on: Candida utilis; test: Antimicrobial activity, serial dilution method; format: cell-based; details: IFO 0619; Glucose nutrient agar
Procedure: as §1, §2

[22] = tested on: Candida; test: Antimicrobial activity, serial dilution method; format: cell-based; details: IFO 1396; Glucose nutrient agar
Procedure: as §1, §2

[23] = tested on: Cryptococcus neoformans; test: Antimicrobial activity, serial dilution method; format: cell-based; details: IFO 0410; Glucose nutrient agar
Procedure: as §1, §2

[24] = tested on: Hormodendrum pedrosoi; test: Antimicrobial activity, serial dilution method; format: cell-based; details: IFO 6071; Glucose nutrient agar
Procedure: as §1, §2

[25] = tested on: Microsporum canis; test: Antimicrobial activity, serial dilution method; format: cell-based; details: IFO 7863; Glucose nutrient agar
Procedure: as §1, §2

[26] = tested on: Microsporum cookei; test: Antimicrobial activity, serial dilution method; format: cell-based; details: IFO 8303; Glucose nutrient agar
Procedure: as §1, §2

[27] = tested on: Penicillium chrysogenum; test: Antimicrobial activity, serial dilution method; format: cell-based; details: IFO 4626; Glucose nutrient agar
Procedure: as §1, §2

[28] = tested on: Saccharomyces cerevisiae; test: Antimicrobial activity, serial dilution method; format: cell-based; details: IFO 0209; Glucose nutrient agar
Procedure: as §1, §2

[29] = tested on: Trychophyton rubrum; test: Antimicrobial activity, serial dilution method; format: cell-based; details: IFO 5467; Glucose nutrient agar
Procedure: as §1, §2

[30] = tested on: Candida albicans; test: Antimicrobial activity, serial dilution method (Glucose nutrient agar); format: cell-based; details: IFO 0583
Procedure: as §1, §2

[31] = tested on: Mycobacterium avium; test: Antimicrobial activity, serial dilution method; format: cell-based; details: Glycerol nutrient agar
Procedure: as §1
(§3) ***Glycerol nutrient agar

[32] = tested on: Mycobacterium phlei; test: Antimicrobial activity, serial dilution method; format: cell-based; details: Glycerol nutrient agar
Procedure: as §1, §3

[33] = tested on: Tetrahymena pyriformis W; test: Activity against Tetrahymena pyriformis W, serial dilution method; format: cell-based; details: Proteose-peptone solution, pH 7.0
Procedure: as §1
****Proteose-peptone solution

[34] = Acute toxicity test in mice; format: in vivo; details: intraperitoneal administration
Text: The assumed LD50 as determined by intraperitoneal administration of C-14919 E-1 and E-2 in an acute toxicity test using mice as test animals are as follows.

[35] = tested on: P388 leukemia; test: Therapeutic activity against P388 leukemia in mice; format: in vivo
Procedure: The therapeutic activity (intraperitoneally administered for a consecutive days) of C-14919 E-1 and E-2 against P388 leukemia in mice (1×10^6 cells/animal, mouse, itraperitoneally transplanted) was investigated. The antitumour activity in terms of the extension of life spans was 144% at the dose level of 5 mg/kg/day.

[36] = Solubility; format: physicochemical
[37] = Acid, neutral or basic nature / lipophilicity; format: physicochemical
[38] = Stability in solution; format: physicochemical
[39] = tested on: Gram-positive bacteria, fungi and yeasts; test: Antimicrobial spectrum (summary of Table 5); format: cell-based; details: antimicrobial spectrum of Table 5
Procedure: as §1

With `COC1CC(C)C(OC)c2cc(O)cc(c2O)NC(=O)/C(C)=C/C=C\C(C)C(OC(N)=O)/C(C)=C/C(C)C1OC` (stereo not shown) [C-14919 E-2] the MIC [1] was 100 µg/mL (≈ 178 µM), the MIC [2] was 50 µg/mL (≈ 89.2 µM) and the MIC [3] was greater than 100 µg/mL. For the same molecule, the MIC [4] was 50 µg/mL (≈ 89.2 µM), the MIC [5] was 100 µg/mL (≈ 178 µM) and the MIC [6] was 100 µg/mL (≈ 178 µM). The MIC [7] was greater than 100 µg/mL, the MIC [8] was greater than 100 µg/mL and the MIC [9] was 50 µg/mL (≈ 89.2 µM). The MIC [10] was greater than 100 µg/mL, the MIC [11] was greater than 100 µg/mL and the MIC [12] was greater than 100 µg/mL. The MIC [13] was 50 µg/mL (≈ 89.2 µM), the MIC [14] was greater than 100 µg/mL and the MIC [15] was greater than 100 µg/mL. It also gave an MIC [16] of 6.25 µg/mL (≈ 11.1 µM), an MIC [17] of 100 µg/mL (≈ 178 µM) and an MIC [18] greater than 100 µg/mL. It also gave an MIC [19] of 100 µg/mL (≈ 178 µM), an MIC [20] greater than 100 µg/mL and an MIC [21] greater than 100 µg/mL. For the same molecule, the MIC [22] was 25 µg/mL (≈ 44.6 µM), the MIC [23] was greater than 100 µg/mL and the MIC [24] was greater than 100 µg/mL. The MIC [25] was greater than 100 µg/mL, the MIC [26] was greater than 100 µg/mL and the MIC [27] was 25 µg/mL (≈ 44.6 µM). It also gave an MIC [28] of 100 µg/mL (≈ 178 µM), an MIC [29] greater than 100 µg/mL and an MIC [30] of 25 µg/mL (≈ 44.6 µM). The MIC [31] was greater than 100 µg/mL, the MIC [32] was greater than 100 µg/mL and the MIC [33] was 10 µg/mL (≈ 17.8 µM). For the same molecule, the “assumed LD50” value [34] was 25 to 100 mg/kg, the “antitumour activity in terms of the extension of life spans” value ([35]; 5 mg/kg/day, intraperitoneally, consecutive days, P388 1×10^6 cells/animal i.p. transplanted) was 144% and the “life-extending effect upon tumour-bearing mammals” value ([35]; e.g. mouse) was “life-extending effect”. For the same molecule, the Solubility in acetone ([36]; acetone) was “Soluble”, the Solubility in benzene ([36]; benzene) was “Sparingly soluble” and the Solubility in butanol ([36]; butanol) was “Soluble”. For the same molecule, the Solubility in chloroform ([36]; chloroform) was “Sparingly soluble”, the “Solubility in diethyl ether” value ([36]; diethyl ether) was “Sparingly soluble” and the Solubility in dimethylsulfoxide ([36]; dimethylsulfoxide) was “Readily soluble”. For the same molecule, the Solubility in ethanol ([36]; ethanol) was “Soluble”, the “Solubility in ethyl acetate” value ([36]; ethyl acetate) was “Soluble” and the Solubility in hexane ([36]; hexane) was “Insoluble”. The Solubility in methanol ([36]; methanol) was “Soluble”, the “Solubility in methyl isobutyl ketone” value ([36]; methyl isobutyl ketone) was “Soluble” and the “Solubility in petroleum ether” value ([36]; petroleum ether) was “Insoluble”. The Solubility in water ([36]; water) was “Sparingly soluble”, the “Acid, neutral or basic” value [37] was “a neutral substance” and the lipophilicity [37] was “lipophyl”. For the same molecule, the Stability ([38]; 80° C., 1 hr.) was “unstable”, the Stability ([38]; Room temp., basic solution/conditions) was “Unstable” and the Stability ([38]; Room temp., neutral and weakly acidic solutions/conditions) was “Stable”. The antimicrobial activity [39] was “display activity against Gram-positive bacteria, fungi and yeasts”.
